Results as given in PubChem BioAssay AID248 (DTP/NCI, 2004).
Where “and” joins values, the source holds several entries; their conditions need not be identical. Identical values can stand only once. Toxic doses and inconclusive results are not listed. Cut-off read from the data, not from the text of the source: active = T/C of 150% or more; inactive = T/C below 125%.

Tested on: L1210 leukemia ip in BDF1 mice, survival T/C
Test: NCI In Vivo Anticancer Drug Screen. Data for tumor model L1210 Leukemia (intraperitoneal) in B6D2F1 (BDF1) mice
Details: endpoint: mean survival time, higher = longer survival
Procedure, shortened: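 In this screen, tumor-bearing mice given compound are compared to those given vehicle, and their survival values are reported as a treated-to-control quotient.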

[1] = dose: 50.0 mg/kg/injection, schedule: Q01DX001 (ip), vehicle: saline
[2] = dose: 100.0 mg/kg/injection, schedule: Q01DX001 (ip), vehicle: saline
[3] = dose: 200.0 mg/kg/injection, schedule: Q01DX001 (ip), vehicle: saline
[4] = dose: 400.0 mg/kg/injection, schedule: Q01DX001 (ip), vehicle: saline
[5] = dose: 100.0 mg/kg/injection, schedule: Q01DX009 (ip), vehicle: saline
[6] = dose: 200.0 mg/kg/injection, schedule: Q01DX009 (ip), vehicle: saline
[7] = dose: 100.0 mg/kg/injection, schedule: Q01DX001 (ip), vehicle: carboxymethylcellulose (CMC)
[8] = dose: 200.0 mg/kg/injection, schedule: Q01DX001 (ip), vehicle: carboxymethylcellulose (CMC)
[9] = dose: 400.0 mg/kg/injection, schedule: Q01DX001 (ip), vehicle: carboxymethylcellulose (CMC)
[10] = dose: 100.0 mg/kg/injection, schedule: Q04DX003 (ip), vehicle: saline with Tween-80
[11] = dose: 200.0 mg/kg/injection, schedule: Q04DX003 (ip), vehicle: saline with Tween-80

Measured: T/C

CNc1c(Cl)n(C)c(=O)n(C)c1=O
inactive: [1] 101 % of control | [2] 101 % of control | [3] 104 % of control | [4] 101 % of control

COc1ccc(CC(=O)NCCc2ccc3cc(OC)c(OC)cc3c2)cc1OC
inactive: [5] 90 % of control | [6] 86 % of control | dose: 400.0 mg/kg/injection, schedule: Q01DX009 (ip), vehicle: saline 88 % of control

Cc1ccc(-c2nnc3c4ccccc4ccn23)cc1
inactive: [7] 93 % of control | [8] 93 % of control | [9] 91 % of control

CCOC(=O)c1ccc(N(C=O)CCC(=O)CCl)cc1
inactive: dose: 3.0 mg/kg/injection, schedule: Q01DX009 (ip), vehicle: saline 104 % of control | dose: 5.0 mg/kg/injection, schedule: Q01DX001 (ip), vehicle: saline 95 % of control | dose: 6.0 mg/kg/injection, schedule: Q01DX009 (ip), vehicle: saline 100 % of control | dose: 10.0 mg/kg/injection, schedule: Q01DX001 (ip), vehicle: saline 102 % of control | dose: 12.0 mg/kg/injection, schedule: Q01DX009 (ip), vehicle: saline 94 % of control | dose: 12.5 mg/kg/injection, schedule: Q01DX009 (ip), vehicle: carboxymethylcellulose (CMC) 107 % of control | dose: 20.0 mg/kg/injection, schedule: Q01DX001 (ip), vehicle: saline 104 % of control | dose: 25.0 mg/kg/injection, schedule: Q01DX009 (ip), vehicle: carboxymethylcellulose (CMC) 107 % of control | dose: 40.0 mg/kg/injection, schedule: Q01DX001 (ip), vehicle: saline 106 % of control

O=C(Nc1ccc(F)cc1)Oc1ccc2ccccc2c1
inactive: [7] 103 % of control | dose: 100.0 mg/kg/injection, schedule: Q01DX009 (ip), vehicle: carboxymethylcellulose (CMC) 95 % of control and 97 % of control | dose: 100.0 mg/kg/injection, schedule: Q04DX002 (ip), vehicle: carboxymethylcellulose (CMC) 92 % of control and 98 % of control | [8] 94 % of control | dose: 200.0 mg/kg/injection, schedule: Q01DX009 (ip), vehicle: carboxymethylcellulose (CMC) 102 % of control and 90 % of control | dose: 200.0 mg/kg/injection, schedule: Q04DX002 (ip), vehicle: carboxymethylcellulose (CMC) 92 % of control and 102 % of control | [9] 97 % of control | dose: 400.0 mg/kg/injection, schedule: Q01DX009 (ip), vehicle: carboxymethylcellulose (CMC) 94 % of control and 90 % of control | dose: 400.0 mg/kg/injection, schedule: Q04DX002 (ip), vehicle: carboxymethylcellulose (CMC) 93 % of control

CCOC(=O)CNc1cccc(F)c1C
inactive: dose: 100.0 mg/kg/injection, schedule: Q04DX002 (ip), vehicle: Klucel (hydroxypropylcellulose) (HPC) 104 % of control | dose: 200.0 mg/kg/injection, schedule: Q04DX002 (ip), vehicle: Klucel (hydroxypropylcellulose) (HPC) 104 % of control | dose: 400.0 mg/kg/injection, schedule: Q04DX002 (ip), vehicle: Klucel (hydroxypropylcellulose) (HPC) 115 % of control

Clc1ccc2c(c1)C1=NCCCN1c1cc(Cl)ccc1-2
inactive: dose: 2.5 mg/kg/injection, schedule: Q01DX009 (ip), vehicle: saline 105 % of control | dose: 2.5 mg/kg/injection, schedule: Q04DX002 (ip), vehicle: saline 100 % of control | dose: 2.5 mg/kg/injection, schedule: Q04DX003 (ip), vehicle: Klucel (hydroxypropylcellulose) (HPC) 102 % of control | dose: 5.0 mg/kg/injection, schedule: Q01DX009 (ip), vehicle: saline 97 % of control | dose: 5.0 mg/kg/injection, schedule: Q04DX002 (ip), vehicle: saline 96 % of control | dose: 5.0 mg/kg/injection, schedule: Q04DX003 (ip), vehicle: Klucel (hydroxypropylcellulose) (HPC) 104 % of control | dose: 10.0 mg/kg/injection, schedule: Q01DX009 (ip), vehicle: saline 97 % of control | dose: 10.0 mg/kg/injection, schedule: Q04DX002 (ip), vehicle: saline 111 % of control | dose: 10.0 mg/kg/injection, schedule: Q04DX003 (ip), vehicle: Klucel (hydroxypropylcellulose) (HPC) 104 % of control | dose: 20.0 mg/kg/injection, schedule: Q04DX003 (ip), vehicle: Klucel (hydroxypropylcellulose) (HPC) 91 % of control

Nc1c(F)c(N)c(F)c(F)c1F
inactive: dose: 5.0 mg/kg/injection, schedule: Q01DX001 (ip), vehicle: acetone 98 % of control | dose: 10.0 mg/kg/injection, schedule: Q01DX001 (ip), vehicle: acetone 121 % of control | dose: 20.0 mg/kg/injection, schedule: Q01DX001 (ip), vehicle: acetone 107 % of control | dose: 20.0 mg/kg/injection, schedule: Q04DX002 (ip), vehicle: saline with Tween-80 106 % of control and 115 % of control | dose: 40.0 mg/kg/injection, schedule: Q01DX001 (ip), vehicle: acetone 106 % of control | dose: 40.0 mg/kg/injection, schedule: Q04DX002 (ip), vehicle: saline with Tween-80 95 % of control and 105 % of control | dose: 80.0 mg/kg/injection, schedule: Q01DX001 (ip), vehicle: acetone 101 % of control | dose: 80.0 mg/kg/injection, schedule: Q04DX002 (ip), vehicle: saline with Tween-80 98 % of control and 114 % of control

CC(C)(CO)Nc1ccccc1
inactive: [10] 114 % of control | [11] 90 % of control | dose: 400.0 mg/kg/injection, schedule: Q04DX003 (ip), vehicle: saline with Tween-80 97 % of control

C=C(Cl)CSCCS
inactive: [10] 95 % of control | [11] 106 % of control

CCCCCCCCCCCCCCCC(O)S(=O)(=O)O (stereo not drawn)
inactive: [10] 92 % of control | [11] 97 % of control

C=CCCCCCCCC/C=N\NC(=O)c1ccc[n+](C)c1
inactive: dose: 50.0 mg/kg/injection, schedule: Q01DX009 (ip), vehicle: saline 106 % of control | [5] 100 % of control

CCCCS(=O)(=O)CS(=O)(=O)CC
inactive: dose: 100.0 mg/kg/injection, schedule: Q01DX001 (ip), vehicle: saline with Tween-80 98 % of control | dose: 200.0 mg/kg/injection, schedule: Q01DX001 (ip), vehicle: saline with Tween-80 91 % of control | dose: 400.0 mg/kg/injection, schedule: Q01DX001 (ip), vehicle: saline with Tween-80 105 % of control

Nc1nc(N)c2nc(NCc3ccc(C(=O)NC(CCC(=O)O)C(=O)O)cc3)cnc2n1 (stereo not drawn)
inactive: [2] 100 % of control | [5] 117 % of control | dose: 100.0 mg/kg/injection, schedule: Q04DX002 (ip), vehicle: saline 103 % of control and 105 % of control | [3] 105 % of control | [6] 117 % of control | dose: 200.0 mg/kg/injection, schedule: Q04DX002 (ip), vehicle: saline 103 % of control and 107 % of control | [4] 96 % of control | dose: 400.0 mg/kg/injection, schedule: Q04DX002 (ip), vehicle: saline 107 % of control and 113 % of control

CCOCCOCCC(=O)OC
inactive: dose: 62.5 mg/kg/injection, schedule: Q01DX001 (ip), vehicle: Klucel (hydroxypropylcellulose) (HPC) 95 % of control | dose: 125.0 mg/kg/injection, schedule: Q01DX001 (ip), vehicle: Klucel (hydroxypropylcellulose) (HPC) 89 % of control | dose: 250.0 mg/kg/injection, schedule: Q01DX001 (ip), vehicle: Klucel (hydroxypropylcellulose) (HPC) 113 % of control

CCOC(=O)CNC(=O)Nc1ccc(C(=O)O)cc1
inactive: dose: 100.0 mg/kg/injection, schedule: Q01DX009 (ip), vehicle: saline with Tween-80 93 % of control | dose: 200.0 mg/kg/injection, schedule: Q01DX009 (ip), vehicle: saline with Tween-80 100 % of control

CC[CH2][Pb]([CH2]CC)([CH2]CC)[O]C(C)=O
inactive: dose: 6.25 mg/kg/injection, schedule: Q04DX003 (ip), vehicle: Klucel (hydroxypropylcellulose) (HPC) 100 % of control | dose: 12.5 mg/kg/injection, schedule: Q04DX003 (ip), vehicle: Klucel (hydroxypropylcellulose) (HPC) 103 % of control | [1] 94 % of control | [2] 94 % of control
